Results on seven compounds are retold here after patent US20250115581A1, “SUBSTITUTED PIPERIDINES AS CK1A DEGRADERS” (Monte Rosa Therapeutics, Inc., priority 2022, published 2025).

For assay [1], the system named is SKCO1. Kind of assay: Growth inhibition, CyQUANT Direct Cell Proliferation Assay, SKCO1. Type of assay: cell-based. Conditions: Homo sapiens, SK-CO-1; SKCO1 cells, 120 to 168 hours. How it is done:
(§1) SKCO1, LS180, and LS174T cell lines were purchased from ATCC. CW2 cell line was purchased from Riken. GP2D cell line was purchased from Sigma/ECACC. All cell lines were cultured in manufacturer's recommended media at 37° C., 5% CO2. Briefly, cells were suspended in 200 μL of media and seeded at 300 to 1,800 cells per well in tissue culture treated 96-well plates with black walls and clear bottom. Plates were incubated overnight and initial (TO) read was performed the following day using CyQUANT Direct Cell Proliferation Assay Kit (Thermo Fisher Scientific) according to manufacturer's protocol. All compounds were solubilized in DMSO and prepared at 3-fold serial dilution, using 9 points starting at 30 μM as highest concentration, administered to cells and incubated for 120 to 168 hours, at which point CyQUANT assay measurement was performed using Acumen Cellista instrument (Ex/Em 480/520 nm). Media-only wells were used as blank, and 0.3% DMSO was used as DMSO-treated cell control. Growth inhibition (percent response) was calculated using the following formula in Excel: “=if ([Compound treated Day N]>[Untreated Day 0, AVG], ([Compound treated Day N]− [Untreated Day 0, AVG])/([Untreated Day N]−[Untreated Day 0, AVG])*100, ([Compound Treated Day N]−[Untreated Day 0, AVG])/([Untreated Day 0, AVG])*100)”. GI50 is the response corresponding to the 50% of untreated control.
(§2) GI50 data are reported in Tables 4a, 4b, 4c, 4d, and 4e for compounds in Table 1. In Tables 4a, 4b, 4c, 4d, and 4e below, According to the code, A represents a GI50 value of ≤0.1 μM, B represents a GI50 value >0.1 μM and ≤1 μM, C represents an GI50 value >1 μM.

Assay [2] has as its system GP2D. Kind of assay: Growth inhibition, CyQUANT Direct Cell Proliferation Assay, GP2D. Format: cell-based. The following applies: GP2D cells, 120 to 168 hours. How it is done: as §1, §2
In assay [3] the target is T1, CK1α (Homo sapiens, UniProt P48729+Q96SW2).
T1 construct: HEK293 clonal lines with CRISPR KI HiBiT tag on CSNK1A1; host or cells: HEK293 clonal line, CRISPR knock-in HiBiT at the CSNK1A1 locus, stably expressing LgBiT
T1 sequence (P48729 whole entry): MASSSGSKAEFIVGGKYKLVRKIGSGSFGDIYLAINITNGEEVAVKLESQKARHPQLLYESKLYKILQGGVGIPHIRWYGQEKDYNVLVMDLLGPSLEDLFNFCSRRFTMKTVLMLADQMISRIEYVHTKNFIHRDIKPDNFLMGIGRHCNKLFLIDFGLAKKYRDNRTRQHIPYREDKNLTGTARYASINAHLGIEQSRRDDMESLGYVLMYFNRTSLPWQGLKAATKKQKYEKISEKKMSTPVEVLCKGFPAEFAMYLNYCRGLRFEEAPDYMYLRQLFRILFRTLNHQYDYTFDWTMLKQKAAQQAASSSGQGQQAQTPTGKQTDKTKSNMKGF
T1 sequence (Q96SW2 whole entry): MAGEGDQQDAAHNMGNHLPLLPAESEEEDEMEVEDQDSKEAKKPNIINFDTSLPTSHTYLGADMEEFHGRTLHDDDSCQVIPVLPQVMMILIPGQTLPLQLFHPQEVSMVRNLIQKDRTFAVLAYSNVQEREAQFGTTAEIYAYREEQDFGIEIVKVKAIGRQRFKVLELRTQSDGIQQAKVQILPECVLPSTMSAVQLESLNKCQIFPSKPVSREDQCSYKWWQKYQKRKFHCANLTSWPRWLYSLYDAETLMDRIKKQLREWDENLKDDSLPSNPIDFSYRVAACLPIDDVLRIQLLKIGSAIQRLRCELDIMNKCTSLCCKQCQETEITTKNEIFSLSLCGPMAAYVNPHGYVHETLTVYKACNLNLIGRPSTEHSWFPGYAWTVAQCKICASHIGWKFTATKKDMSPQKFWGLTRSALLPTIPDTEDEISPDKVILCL
T1 sequence (Q16531 whole entry partner): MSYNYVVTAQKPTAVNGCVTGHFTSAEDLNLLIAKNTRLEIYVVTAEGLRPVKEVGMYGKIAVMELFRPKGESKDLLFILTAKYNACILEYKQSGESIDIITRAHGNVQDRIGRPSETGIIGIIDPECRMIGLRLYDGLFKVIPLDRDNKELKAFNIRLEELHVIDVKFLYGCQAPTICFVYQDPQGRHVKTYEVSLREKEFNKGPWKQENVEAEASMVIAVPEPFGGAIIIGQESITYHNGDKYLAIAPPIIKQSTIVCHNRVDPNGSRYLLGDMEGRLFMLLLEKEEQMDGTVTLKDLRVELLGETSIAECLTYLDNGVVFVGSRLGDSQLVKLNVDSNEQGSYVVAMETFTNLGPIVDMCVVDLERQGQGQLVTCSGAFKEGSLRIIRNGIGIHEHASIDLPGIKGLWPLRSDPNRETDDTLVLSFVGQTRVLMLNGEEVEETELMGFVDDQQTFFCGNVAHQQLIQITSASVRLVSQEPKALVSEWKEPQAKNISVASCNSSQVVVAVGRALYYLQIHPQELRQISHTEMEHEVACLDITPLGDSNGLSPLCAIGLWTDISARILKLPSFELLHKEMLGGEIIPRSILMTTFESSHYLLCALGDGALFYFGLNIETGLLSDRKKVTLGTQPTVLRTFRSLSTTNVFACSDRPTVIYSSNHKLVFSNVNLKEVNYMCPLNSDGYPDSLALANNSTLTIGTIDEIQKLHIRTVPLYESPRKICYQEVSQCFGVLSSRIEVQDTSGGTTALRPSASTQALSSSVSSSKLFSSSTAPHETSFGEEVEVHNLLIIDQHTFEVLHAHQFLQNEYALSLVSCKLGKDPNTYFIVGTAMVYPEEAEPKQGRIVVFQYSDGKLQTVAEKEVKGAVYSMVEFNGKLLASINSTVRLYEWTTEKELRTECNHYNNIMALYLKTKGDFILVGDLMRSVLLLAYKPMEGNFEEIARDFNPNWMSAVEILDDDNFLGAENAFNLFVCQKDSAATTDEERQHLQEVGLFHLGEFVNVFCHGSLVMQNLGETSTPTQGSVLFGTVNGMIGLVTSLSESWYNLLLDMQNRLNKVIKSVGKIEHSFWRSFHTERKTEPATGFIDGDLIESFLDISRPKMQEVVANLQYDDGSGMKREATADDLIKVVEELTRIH
Kind of assay: CK1α NanoBit Assay (HiBiT-tagged CSNK1A1 in HEK293 cells, luminescence). The following applies: 24 h. Format: cell-based. The method in brief: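 HEK293 with endogenous HiBiT-tagged CSNK1A1 and stable LgBiT, live-cell Endurazine substrate; compound added at 10 or 30 μM final top concentration after 16 h plating, then 24 h at 37 °C. Luminescence normalised to plate controls; DC50 by 3-parameter logistic fit, hill slope 1.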

Assay [4] concerns CW2. The experiment in a line: Growth inhibition, CyQUANT Direct Cell Proliferation Assay, CW2. Format: cell-based. Conditions: Homo sapiens, CW-2; CW2 cells, 120 to 168 hours. The method, then:
as §1, §2

For assay [5], the target named is CRBN/DDB1 (Homo sapiens, UniProt Q96SW2). Kind of assay: HTRF binding assay (displacement of Cy5-thalidomide probe from CRBN/DDB1). The following applies: CRBN/DDB1 2.5 nM, Cy5-Thalidomide 100 nM, 30 min; geometric mean; read-out: HTRF_Thali_Disp_DR_geo_IC50. The method in brief:
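HTRF displacement of Cy5-thalidomide probe (100 nM) from His-tagged CRBN/DDB1 (2.5 nM) with anti-His terbium cryptate, in HEPES/NaCl/TCEP/EDTA/Tween20 buffer; 10-point 1:3 series, 30 min at ambient temperature. 665/620 nm ratio fitted 4-parameter logistic for IC50; Ki via Cheng-Prusoff.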
(In general: TR-FRET usually uses a lanthanide donor and a delayed reading to cut background.)

For assay [6], the system named is LS174T. Kind of assay: Growth inhibition, CyQUANT Direct Cell Proliferation Assay, LS174T. Type of assay: cell-based. The following applies: Homo sapiens; LS174T cells, 120 to 168 hours. How it is done: as §1, §2
In assay [7] the test system is LS180. The experiment in a line: Growth inhibition, CyQUANT Direct Cell Proliferation Assay, LS180. Format: cell-based. Conditions: Homo sapiens; LS180 cells, 120 to 168 hours. How it is done:
as §1, §2

Chain of CRBN/DDB1 (Q96SW2 whole entry): as the sequence (Q96SW2 whole entry) above
Chain of CRBN/DDB1 (Q16531 whole entry partner): as the sequence (Q16531 whole entry partner) above

Turning to `O=C1CCC(N2Cc3cc(N4CCN(c5ccc(C(F)F)nc5)C4=O)ccc3C2=O)C(=O)N1` (centres unmarked) [Compound 124, 3-(5-(3-(6-(difluoromethyl)pyridin-3-yl)-2-oxoimidazolidin-1-yl)-1-oxoisoindolin-2-yl)piperidine-2,6-dione], the concentration for 50% growth inhibition (GI50) in assay [1] is 100 to 1000 nM; in assay [2], 100 to 1000 nM; in assay [4] it was no more than 100 nM; in assay [6] it was no more than 100 nM; in assay [7], 100 to 1000 nM. Also, the DC50 in assay [3] was no more than 0.1 µM. Also, the IC50 in assay [5] lay within 100 to 1000 nM.

Regarding `C[C@@H]1CN(c2ccc3c(c2)CN(C2CCC(=O)NC2=O)C3=O)C(=O)N1c1ccc(C2CC2)nc1` (stereo partly drawn) [Compound 137, 3-(5-((R)-3-(6-cyclopropylpyridin-3-yl)-4-methyl-2-oxoimidazolidin-1-yl)-1-oxoisoindolin-2-yl)piperidine-2,6-dione], the GI50 in assay [1] was 100 to 1000 nM; in assay [2], greater than 1000 nM; in assay [4], 100 to 1000 nM; in assay [6], 100 to 1000 nM; in assay [7], greater than 1000 nM. This compound also yielded a DC50 in assay [3] of no more than 0.1 µM. The IC50 in assay [5] was in the range of 100 to 1000 nM.

Regarding `Cc1ccc(N2CCN(c3ccc4c(c3)CN(C3CCC(=O)NC3=O)C4=O)C2=O)cc1` (centres unmarked) [Compound 111, 3-(1-oxo-5-(2-oxo-3-(p-tolyl)imidazolidin-1-yl)isoindolin-2-yl) piperidine-2,6-dione], the GI50 was no more than 100 nM in assay [1]; 100 to 1000 nM in assay [2]; no more than 100 nM in assay [4]; 100 to 1000 nM in assay [6]; 100 to 1000 nM in assay [7]. In assay [3], this compound came in with a DC50 of no more than 0.1 µM. In assay [5], the IC50 is 100 to 1000 nM.

With `Cc1ccc(N2CCN(c3ccc4c(c3)CN(C3CCC(=O)NC3=O)C4=O)C2=O)cn1` (centres unmarked) [Compound 104, 3-(5-(3-(6-methylpyridin-3-yl)-2-oxoimidazolidin-1-yl)-1-oxoisoindolin-2-yl)piperidine-2,6-dione], the GI50 in assay [1], in assay [2], in assay [4], in assay [6] and in assay [7] was 100 to 1000 nM throughout. In assay [3], this compound registered a DC50 of no more than 0.1 µM. In assay [5], the IC50 was in the range of 100 to 1000 nM.

For `O=C1CCC(N2Cc3cc(N4CCN(c5ccc(C6CC6)cc5)C4=O)ccc3C2=O)C(=O)N1` (centres unmarked) [Compound 123, 3-(5-(3-(4-cyclopropylphenyl)-2-oxoimidazolidin-1-yl)-1-oxoisoindolin-2-yl)piperidine-2,6-dione], the GI50 was no more than 100 nM in assay [1]; 100 to 1000 nM in assay [2]; no more than 100 nM in assay [4]; no more than 100 nM in assay [6]; 100 to 1000 nM in assay [7]. The compound further had a DC50 in assay [3] of no more than 0.1 µM. For the same compound, the IC50 in assay [5] is greater than 1000 nM.

`O=C1CCC(N2Cc3cc(N4CCN(c5ccc(C(F)(F)F)nc5)C4=O)ccc3C2=O)C(=O)N1` (centres unmarked) [Compound 126, 3-(1-oxo-5-(2-oxo-3-(6-(trifluoromethyl)pyridin-3-yl)imidazolidin-1-yl)isoindolin-2-yl)piperidine-2,6-dione]: the 50% growth inhibitory concentration (GI50) in assay [1] is 100 to 1000 nM; in assay [2], 100 to 1000 nM; in assay [4], no more than 100 nM; in assay [6], 100 to 1000 nM; in assay [7], 100 to 1000 nM. This compound had a DC50 in assay [3] of no more than 0.1 µM. In addition, the IC50 in assay [5] is 100 to 1000 nM.

For the compound `O=C1CCC(N2Cc3cc(N4C[C@@H](C(F)(F)F)N(c5ccccc5)C4=O)ccc3C2=O)C(=O)N1` (stereo partly drawn) [Compound 106, 3-(1-oxo-5-((S)-2-oxo-3-phenyl-4-(trifluoromethyl)imidazolidin-1-yl)isoindolin-2-yl)piperidine-2,6-dione], the DC50 in assay [3] was 0.1 to 1 µM. For the same compound, the IC50 in assay [5] fell in the range of 100 to 1000 nM.

By GI50 is commonly meant the concentration giving 50% growth inhibition. Low readings indicate greater sensitivity of the cells, high ones lower sensitivity of the cells.
